The structures appear in SMILES notation.

Experimental findings from patent US10597366B2, “Aryl ethers and uses thereof” (Peloton Therapeutics, Inc., priority 2013, dated 2020) are described below.

One experiment has as its system 786-O-Hif-Luc cells (luciferase gene driven by multiple HIF responsive elements). As to the kind of experiment: Luciferase Assay. Type of experiment: cell-based. The note with it: 24 h, 786-O-Hif-Luc cells, about 24 hours; read-out: Mean Luciferease EC50. The procedure:
A pool of infected cells were then selected against 2 μg/mL of puromycin (P8833, Sigma) for 10 days followed by limited dilution to select single clones.
Each concentration was tested in triplicate. After about 24 hours, luciferase activity was determined using ONE-Glo Luciferase Assay Reagent (E6110, Promega) following the manufacturer's recommended procedure. EC50 were calculated by using Dotmatics software.
As for `N#Cc1cc(F)cc(Oc2ccc(S(=O)(=O)C(F)F)c3c2CC(F)(F)[C@@H]3O)c1` [Compound 237, (R)-3-((7-((difluoromethyl)sulfonyl)-2,2-difluoro-1-hydroxy-2,3-dihydro-1H-inden-4-yl)oxy)-5-fluorobenzonitrile], the half-maximal effective concentration (EC50) stood at 120 nM.
On the same count and under the same terms, then `O=S(=O)(c1ccc(Oc2ccc(F)c3[nH]ncc23)c2c1C(O)C(F)(F)C2)C(F)(F)F` (stereo not drawn) [Compound 241, 2,2-Difluoro-4-((7-fluoro-1H-indazol-4-yl)oxy)-7-((trifluoromethyl)sulfonyl)-2,3-dihydro-1H-inden-1-ol], with 140 nM; and `O=S(=O)(CF)c1ccc(Oc2cccc3sccc23)c2c1C(O)C(F)(F)C2` (stereo not drawn) [Compound 242, 4-(Benzo[b]thiophen-4-yloxy)-2,2-difluoro-7-((fluoromethyl)sulfonyl)-2,3-dihydro-1H-inden-1-ol], with 510 nM; and `O=S(=O)(c1ccc(Oc2cccc3[nH]ncc23)c2c1C(O)C(F)(F)C2)C(F)(F)F` (stereo not drawn) [Compound 243], with 920 nM.
The same measure, in the same setting: under `O=S(=O)(c1ccc(Oc2c(F)ccc3[nH]ncc23)c2c1C(O)C(F)(F)C2)C(F)(F)F` (stereo not drawn) [Compound 244, 2,2-Difluoro-4-((5-fluoro-1H-indazol-4-yl)oxy)-7-((trifluoromethyl)sulfonyl)-2,3-dihydro-1H-inden-1-ol] stands 1710 nM.
Same read-out and setting: then `CS(=O)(=O)c1ccc(Oc2cc(C#N)cc(C(F)F)c2)c2c1C(O)CC2` (stereo not drawn) [Compound 249, 3-(Difluoromethyl)-5-((1-hydroxy-7-(methylsulfonyl)-2,3-dihydro-1H-inden-4-yl)oxy)benzonitrile], with 1470 nM; and `N#Cc1cc(F)cc(Oc2ccc(S(=O)(=O)CCO)c3c2CC(F)(F)C3O)c1` (stereo not drawn) [Compound 250, 3-((2,2-Difluoro-1-hydroxy-7-((2-hydroxyethyl)sulfonyl)-2,3-dihydro-1H-inden-4-yl)oxy)-5-fluorobenzonitrile], with 2950 nM.
On to `N#Cc1cncc(Oc2ccc(S(N)(=O)=O)c3c2CC(F)(F)[C@H]3O)c1` [Compound 253, (S)-7-((5-Cyanopyridin-3-yl)oxy)-2,2-difluoro-3-hydroxy-2,3-dihydro-1H-indene-4-sulfonamide], for which the EC50 turned out to be 1080 nM.
Still for that read-out and setting: then `O=[N+]([O-])c1ccc(Oc2cc(F)cc(Cl)c2)c2c1C(O)CC2` (stereo not drawn) [Compound 255, 4-(3-Chloro-5-fluorophenoxy)-7-nitro-2,3-dihydro-1H-inden-1-ol], with 1390 nM; and `N#Cc1cc(F)cc(Oc2ccc(S(=N)(=O)C(F)(F)F)c3c2CCC3O)c1` (stereo not drawn) [Compound 258, 3-Fluoro-5-((1-hydroxy-7-(S-(trifluoromethyl)sulfonimidoyl)-2,3-dihydro-1H-inden-4-yl)oxy)benzonitrile], with 2100 nM.
On the same count and under the same terms, under `O=S(=O)(c1ccc(Oc2cc(Cl)c[n+]([O-])c2)c2c1[C@H](O)C(F)(F)C2)C(F)(F)F` [Compound 260, (S)-3-Chloro-5-((2,2-difluoro-1-hydroxy-7-((trifluoromethyl)sulfonyl)-2,3-dihydro-1H-inden-4-yl)oxy)pyridine 1-oxide] stands 170 nM; under `O=S(=O)(c1ccc(Oc2cc(F)c(F)c3[nH]ncc23)c2c1C(O)C(F)(F)C2)C(F)(F)F` (stereo not drawn) [Compound 261, 4-((6,7-Difluoro-1H-indazol-4-yl)oxy)-2,2-difluoro-7-((trifluoromethyl)sulfonyl)-2,3-dihydro-1H-inden-1-ol], 1650 nM.
On the same count and under the same terms, then `O=S(=O)(c1ccc(Oc2cccc3[nH]ncc23)c2c1[C@H](O)C(F)(F)C2)C(F)(F)F` [Compound 263, (S)-4-((1H-Indazol-4-yl)oxy)-2,2-difluoro-7-((trifluoromethyl)sulfonyl)-2,3-dihydro-1H-inden-1-ol], with 780 nM; and `O=S(=O)(c1ccc(Oc2c(F)ccc3[nH]ncc23)c2c1[C@H](O)C(F)(F)C2)C(F)(F)F` [Compound 264, (S)-2,2-Difluoro-4-((5-fluoro-1H-indazol-4-yl)oxy)-7-((trifluoromethyl)sulfonyl)-2,3-dihydro-1H-inden-1-ol], with 2730 nM.
In the case of `O=S(=O)(c1ccc(Oc2ccc(F)c3[nH]ncc23)c2c1[C@H](O)C(F)(F)C2)C(F)(F)F` [Compound 266, (S)-2,2-difluoro-4-((7-fluoro-1H-indazol-4-yl)oxy)-7-((trifluoromethyl)sulfonyl)-2,3-dihydro-1H-inden-1-ol], the EC50 was 30 nM.
Same read-out and setting: then `CS(=O)(=O)c1ccc(Oc2cc(F)cc(C#N)c2)c2c1C(=O)C(F)(Cl)C2` (stereo not drawn) [Compound 269, 3-((2-chloro-2-fluoro-7-(methylsulfonyl)-1-oxo-2,3-dihydro-1H-inden-4-yl)oxy)-5-fluorobenzonitrile], with 19400 nM; and `CS(=O)(=O)c1ccc(Oc2cc(F)cc(C#N)c2)c2c1[C@H](O)C(F)(Cl)C2` (stereo partly drawn) [Compound 270, 3-(((1S)-2-chloro-2-fluoro-1-hydroxy-7-(methylsulfonyl)-2,3-dihydro-1H-inden-4-yl)oxy)-5-fluorobenzonitrile], with 100 nM; and `C[S+]([O-])c1ccc(Oc2cc(F)cc(C#N)c2)c2c1[C@H](O)C(F)(F)C2` (stereo partly drawn) [Compound 272, 3-[(1S)-2,2-Difluoro-1-hydroxy-7-methylsulfinyl-indan-4-yl]oxy-5-fluoro-benzonitrile], with 2280 nM.
The same measure, in the same setting: under `N#Cc1cc(F)cc(Oc2ccc(S(=O)(=O)C(F)(F)F)c3c2CC(F)(F)[C@H]3NCCO)c1` [Compound 291, 3-[(1S)-2,2-difluoro-1-(2-hydroxyethylamino)-7-(trifluoromethylsulfonyl)indan-4-yl]oxy-5-fluoro-benzonitrile] stands 3100 nM; under `CS(=O)(=O)c1ccc(Oc2cc(F)cc(C#N)c2)c2c1[C@H](O)C(F)(F)[C@H]2F` [Compound 293, 3-fluoro-5-[(1S,3S)-2,2,3-trifluoro-1-hydroxy-7-methylsulfonyl-indan-4-yl]oxy-benzonitrile], 780 nM.
As for `CS(=O)(=O)c1ccc(Oc2cc(F)cc(C#N)c2)c2c1[C@H](O)[C@H](F)[C@H]2F` [Compound 294, 3-[(1S,2S,3S)-2,3-difluoro-1-hydroxy-7-methylsulfonyl-indan-4-yl]oxy-5-fluoro-benzonitrile], the EC50 is 1000 nM.
Same read-out and setting: under `CS(=O)(=O)c1ccc(Oc2cc(F)cc(C#N)c2)c2c1[C@H](O)C[C@@H]2F` [Compound 295, 3-fluoro-5-[(1R,3S)-3-fluoro-1-hydroxy-7-methylsulfonyl-indan-4-yl]oxy-benzonitrile] stands 390 nM; under `CS(=O)(=O)c1ccc(Oc2cc(F)cc(C#N)c2)c2c1[C@H](O)[C@H](F)[C@@H]2O` [Compound 296, 3-fluoro-5-[(1S,2R,3R)-2-fluoro-1,3-dihydroxy-7-methylsulfonyl-indan-4-yl]oxy-benzonitrile], 1300 nM; under `C[C@@]1(F)Cc2c(Oc3cc(F)cc(C#N)c3)ccc(S(C)(=O)=O)c2[C@@H]1O` [Compound 300, 3-fluoro-5-(((1S,2R)-2-fluoro-1-hydroxy-2-methyl-7-(methylsulfonyl)-2,3-dihydro-1H-inden-4-yl)oxy)benzonitrile], 2800 nM.
The same measure, in the same setting: then `C[C@@H]1Cc2c(Oc3cc(F)cc(C#N)c3)ccc(S(C)(=O)=O)c2[C@@H]1O` [Compound 301, 3-fluoro-5-(((1R,2R)-1-hydroxy-2-methyl-7-(methylsulfonyl)-2,3-dihydro-1H-inden-4-yl)oxy)benzonitrile], with 2100 nM; and `CS(=O)(=NC#N)c1ccc(Oc2cc(F)cc(C#N)c2)c2c1[C@H](O)[C@H](F)C2` (stereo partly drawn) [Compound 302, N-(((2R,3S)-7-(3-cyano-5-fluorophenoxy)-2-fluoro-3-hydroxy-2,3-dihydro-1H-inden-4-yl)(methyl)(oxo)-λ^6-sulfanylidene)cyanamide], with 110 nM.

The same experiment, now with this note: 24 h, read-out: Mean Luciferease EC50.
For the compound `[2H][C@]1(O)c2c(S(C)(=O)=O)ccc(Oc3cc(F)cc(C#N)c3)c2CC1(F)F` [Compound 247, (S)-3-((2,2-Difluoro-1-hydroxy-7-(methylsulfonyl)-2,3-dihydro-1H-inden-4-yl-1-d)oxy)-5-fluorobenzonitrile], the EC50 amounted to 24 nM.
Consider `CNS(=O)(=O)c1ccc(Oc2cc(F)cc(F)c2)c2c1[C@H](O)C(F)(F)C2` [Compound 251, (S)-7-(3,5-Difluorophenoxy)-2,2-difluoro-3-hydroxy-N-methyl-2,3-dihydro-1H-indene-4-sulfonamide], for which the concentration giving a half-maximal response (EC50) stood at 53 nM.
Still for that read-out and setting: under `CNS(=O)(=O)c1ccc(Oc2cc(F)cc(C#N)c2)c2c1[C@H](O)C(F)(F)C2` [Compound 254, (S)-7-(3-Cyano-5-fluorophenoxy)-2,2-difluoro-3-hydroxy-N-methyl-2,3-dihydro-1H-indene-4-sulfonamide] stands 120 nM; under `NS(=O)(=O)c1ccc(Oc2cc(F)cc(F)c2)c2c1[C@H](O)C(F)(F)C2` [Compound 256, (S)-7-(3,5-Difluorophenoxy)-2,2-difluoro-3-hydroxy-2,3-dihydro-1H-indene-4-sulfonamide], 49 nM.
Take `CS(=O)(=O)c1ccc(Oc2cc(F)cc(C#N)c2)c2c1[C@H](O)[C@@H](F)C2` [Compound 271, 3-fluoro-5-(((1S,2S)-2-fluoro-1-hydroxy-7-(methylsulfonyl)-2,3-dihydro-1H-inden-4-yl)oxy)benzonitrile]: the half-maximal effective concentration (EC50) was found to be 470 nM.
Still for that read-out and setting: then `CS(=O)(=O)c1ccc(Oc2cc(F)cc(C#N)c2)c2c1[C@H](O)[C@H](F)[C@@H]2F` [Compound 289, 3-[(1S,2S,3R)-2,3-difluoro-1-hydroxy-7-methylsulfonyl-indan-4-yl]oxy-5-fluoro-benzonitrile], with 4.2 nM; and `N#Cc1cc(F)cc(Oc2ccc(S(=O)(=O)C(F)(F)F)c3c2CC(F)(F)[C@H]3N)c1` [Compound 290, 3-[(1S)-1-amino-2,2-difluoro-7-(trifluoromethylsulfonyl)indan-4-yl]oxy-5-fluoro-benzonitrile], with 170 nM.
